Experimental data published in ChEMBL document CHEMBL1671668, “Is the recommended dose of efavirenz optimal in young West African human immunodeficiency virus-infected children?” (Antimicrob Agents Chemother, 2009).

Experiments:
[1] = Cmax in HIV-1 infected children at 12 mg/kg, po administered once daily by HPLC; format: ADME, organism-based; parameters: dose 12 mg/kg, route oral; settings: human, in vivo
[2] = Apparent oral clearance in HIV-1 infected children at 13.3 mg/kg, po administered once daily by HPLC; format: ADME, organism-based; parameters: dose 13.3 mg/kg, route oral; settings: human, in vivo
[3] = Apparent oral clearance in HIV-1 infected children at 12 mg/kg, po administered once daily by HPLC; format: ADME, organism-based; parameters: dose 12 mg/kg, route oral; settings: human, in vivo
Homo sapiens [4] = test: AUC (0 to t) in HIV-1 infected children at 10 to 15 mg/kg, po administered once daily by HPLC; format: ADME, organism-based, Plasma; parameters: dose 10-15 mg/kg, route oral; settings: in vivo
[5] = Cmax in HIV-1 infected children at 10 to 15 mg/kg, po administered once daily by HPLC; format: ADME, organism-based; parameters: dose 10-15 mg/kg, route oral; settings: human, in vivo
Homo sapiens [6] = test: AUC (0 to t) in HIV-1 infected children at 14.4 mg/kg, po administered once daily by HPLC; format: ADME, organism-based, Plasma; parameters: dose 14.4 mg/kg, route oral; settings: in vivo
Homo sapiens [7] = test: AUC (0 to t) in HIV-1 infected children at 12 mg/kg, po administered once daily by HPLC; format: ADME, organism-based, Plasma; parameters: dose 12 mg/kg, route oral; settings: in vivo
[8] = Apparent oral clearance in HIV-1 infected children at 14.4 mg/kg, po administered once daily by HPLC; format: ADME, organism-based; parameters: dose 14.4 mg/kg, route oral; settings: human, in vivo
[9] = Cmax in HIV-1 infected children at 14.4 mg/kg, po administered once daily by HPLC; format: ADME, organism-based; parameters: dose 14.4 mg/kg, route oral; settings: human, in vivo
[10] = system: Human immunodeficiency virus 1; test: Antiviral activity against HIV1 infected in children assessed as decrease in viral burden at 14.4 mg/kg once daily measured after 3 months; format: functional

O=C1Nc2ccc(Cl)cc2[C@@](C#CC2CC2)(C(F)(F)F)O1 [EFAVIRENZ]
Cmax [1]: 4090 ng/mL
CL/F [2]: 5 mL/min/kg
CL/F [3]: 3.17 mL/min/kg
AUC (Homo sapiens [4]): 63.6 mg·h/L
Cmax [5]: 5520 ng/mL
AUC (Homo sapiens [6]): 65.2 mg·h/L
AUC (Homo sapiens [7]): 60 mg·h/L
CL/F [8]: 3.5 mL/min/kg
Cmax [9]: 3710 ng/mL
fold change (FC) [10]: 2.5
